Target: NmSiaDW (Neisseria meningitidis, UniProt O33390)
Experiment: sialyltransferase kinetics, varied acceptor
Type: biochemical
Conditions: α2–6-sialyltransferase activity, fixed concentration of CMP-Neu5Ac

## CC(=O)N[C@H]1[C@H]([C@H](O)[C@H](O)CO)O[C@@](OC[C@H]2O[C@H](O[C@H]3C[C@](OCCCNC(=O)OCc4ccccc4)(C(=O)O)O[C@@H]([C@H](O)[C@H](O)CO)[C@@H]3NC(C)=O)[C@H](O)[C@@H](O)[C@H]2O)(C(=O)O)C[C@@H]1O[C@H]1O[C@H](CO)[C@H](O)[C@H](O)[C@H]1O [G4]
  Km: 240 ± 40 µM

— PMC7785057 (ACS catalysis, 2020)
